From patent publication US20240376097A1, “BCL-2 Inhibitor” (BeiGene Ltd., priority 2020, published 2024)
Like-named read-outs stand apart in the source and are kept apart here.

What was measured:
[1] = target: Recombinant human Bcl-2 protein (Homo sapiens (Human), UniProt P10415); test: Bcl-2 TR-FRET Assay; format: binding
Procedure, shortened: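 In pH 7.5 phosphate buffer containing NaCl, EDTA, Tween-20 and BSA, 0.05 nM Bcl-2 saw serially diluted compound for 0.5 h before 0.5 nM FITC-Bak peptide was added. Signal ratio at 520/490 nm after 1 h yielded IC50.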

[2] = Metabolic Stability Study, liver microsome incubation (mouse); format: in vitro ADME; conditions: mouse liver microsomes 0.5 mg/mL, 1 μM compound, NADPH; for half-life at 1 μM: NA^# = very stable, beyond the detection limits, read-out: T1/2 (min) mouse; for microsomal CLint at 1 μM: read-out: CLint (μL × min^−1 × mg^−1) mouse
Experimental: (§1) Biological Example: Metabolic Stability Study
(§2) The metabolic stability of some compounds was evaluated by using the liver microsome incubation system in vitro. Briefly, the test compounds at 1 μM, were incubated with 0.5 mg/mL liver microsomes from different species (human, dog, rat and mouse) with an NADPH regenerating system at 37° C. Samples were quenched at three time points (0, 30, 60 min) with organic solvent containing internal standards, and the supernatant was analyzed for parent loss via LC-MS/MS. Midazolam was used as the positive control to validate the incubation system.
(§3) where Cprotein is the microsomal protein concentration in the incubation system.
(§4) The value of CLint and T1/2 of Example F132b in WO2019210818 and representative compounds of the disclosure were determined, and the results are shown in Table 5.

[3] = Metabolic Stability Study, liver microsome incubation (human); format: in vitro ADME; conditions: human liver microsomes 0.5 mg/mL, 1 μM compound, NADPH; for half-life at 1 μM: NA^# = very stable, beyond the detection limits, read-out: T1/2 (min) Human; for microsomal CLint at 1 μM: read-out: CLint (μL × min^−1 × mg^−1) Human
Experimental: as §1, §2, §3, §4

[4] = target: recombinant human Bcl-2 D103Y protein (Homo sapiens (Human), UniProt P10415, D103Y); test: Bcl-2-D103Y Biochemical Assay (TR-FRET); format: binding; conditions: for IC50: TR-FRET, FITC labeled Bak peptide; for Ratio of Bcl-2 D103Y/Bcl-2 WT: ratio of IC50
Procedure, shortened: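 Compounds titrated against the Bcl-2 D103Y–ligand interaction; inhibition derived from the TR-FRET emission ratio 490 nm/520 nm after 337 nm excitation. Four-parameter logistic fitting gave IC50.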

[5] = target: recombinant human Bcl-2-G101V protein (Homo sapiens (Human), UniProt P10415, G101V); test: Bcl-2-G101V TR-FRET Assay; format: binding; conditions: Bcl-2 G101V mutant, TR-FRET; read-out: Biochemical assay (IC50, nM) Bcl-2 G101V
Procedure, shortened: (§5)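 Displacement of ligand from recombinant human Bcl-2-G101V measured by TR-FRET (ex337 nm, em490/520 nm), inhibition derived from the 490/520 ratio across compound titrations. IC50 from four-parameter logistic fit.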

[6] = system: recombinant human Bcl-2-G101V protein; test: Bcl-2-G101V TR-FRET Assay; format: binding; conditions: for Ratio of Bcl-2 G101V/WT: ratio of biochemical IC50 Bcl-2 G101V / Bcl-2 WT
Procedure, shortened: as §5

[7] = system: RS4;11 (BCL-2 dependent acute lymphoblastic leukemia cell line); test: RS4;11 Cell Proliferation Assay; format: cell-based; conditions: Homo sapiens, RS4-11, RS4;11 cells, read-out: Cellular proliferation assay (IC50, nM) RS4
Procedure, shortened: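 Viability measured via CellTiter-Glo luminescence after a 48 h, 37 °C exposure to compounds (10 points, highest 1 μM). Seeding was 50,000 RS4;11 cells per well in 10% FBS RPMI-1640; IC50 given as mean.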

[8] = system: BCL-2 G101V knock-in cell line H96 (derive from RS4;11); test: Bcl 2-G101V Knock-In RS4;11 Cell Proliferation Assay; format: cell-based; conditions: Homo sapiens, RS4;11 Bcl-2 G101V knock-in clone H96, 48 hrs, CellTiter-GLO, read-out: Cellular proliferation assay (IC50, nM) RS4
Procedure, shortened: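 CellTiter-Glo luminescence after 48 h, 37 °C compound treatment (10 concentrations, maximum 1 μM or 10 μM) gave mean IC50 values. Cells were 50,000 per well of H96, a BCL2-G101V knock-in single clone derived from RS4;11 by Cas9 editing.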

[9] = wild type Bcl-2, unit inferred, read-out: Bcl-2 WT
[10] = Bcl-2 wild type, TR-FRET, read-out: Biochemical assay (IC50, nM) Bcl-2 WT

Compound: COc1ccc(CN2CCN(C3CC4(CCN(c5ccc(C(=O)NS(=O)(=O)c6ccc(NC[C@H]7COCCO7)c([N+](=O)[O-])c6)c(Oc6cnc7[nH]ccc7c6)c5)CC4)C3)[C@H](c3ccccc3C(C)C)C2)cc1 (single isomer, unassigned) [Example 33, N-((4-((((S)-1,4-dioxan-2-yl)methyl)amino)-3-nitrophenyl)sulfonyl)-2-((1H-pyrrolo[2,3-b]pyridin-5-yl)oxy)-4-(2-((R or S)-2-(2-isopropylphenyl)-4-(4-methoxybenzyl)piperazin-1-yl)-7-azaspiro[3.5]nonan-7-yl)benzamide]
- IC50 [1, 9]: 0.038 nM
- half-life at 1 μM [2]: 233 min
- microsomal CLint at 1 μM [2]: 5.9 µL/min/mg
- half-life at 1 μM [3]: 1820 min
- microsomal CLint at 1 μM [3]: 0.8 µL/min/mg
- IC50 [4]: 0.094 nM
- Ratio of Bcl-2 D103Y/Bcl-2 WT [4]: 2.5

Compound: CC(C)c1ccccc1C1CC(Cc2ccccc2)CCN1C1CC2(CCN(c3ccc(C(=O)NS(=O)(=O)c4ccc(NC[C@H]5CC[C@](C)(O)CC5)c([N+](=O)[O-])c4)c(Oc4cnc5[nH]ccc5c4)c3)CC2)C1 (stereo partly drawn) [Example 67, 2-((1H-pyrrolo[2,3-b]pyridin-5-yl)oxy)-4-(2-(4-benzyl-2-(2-isopropylphenyl)piperidin-1-yl)-7-azaspiro[3.5]nonan-7-yl)-N-((4-((((1r,4r)-4-hydroxy-4-methylcyclohexyl)methyl)amino)-3-nitrophenyl)sulfonyl)benzamide]
- half-life at 1 μM [2]: 272 min
- microsomal CLint at 1 μM [2]: 5.1 µL/min/mg
- half-life at 1 μM [3]: 309 min
- microsomal CLint at 1 μM [3]: 4.5 µL/min/mg

Compound: COc1ccc(CN2CCN(C3CC4(CCN(c5ccc(C(=O)NS(=O)(=O)c6ccc(OCC7CCC(C)(O)CC7)c([N+](=O)[O-])c6)c(Oc6cnc7[nH]ccc7c6)c5)CC4)C3)[C@H](c3ccccc3C(C)C)C2)cc1 (stereo partly drawn) [Example 236, (R)-2-((1H-pyrrolo[2,3-b]pyridin-5-yl)oxy)-N-((4-((4-hydroxy-4-methylcyclohexyl)methoxy)-3-nitrophenyl)sulfonyl)-4-(2-(2-(2-isopropylphenyl)-4-(4-methoxybenzyl)piperazin-1-yl)-7-azaspiro[3.5]nonan-7-yl)benzamide]
- IC50 [5]: 0.56 nM
- Ratio of Bcl-2 G101V/WT [6]: 3.5
- IC50 [1, 10]: 0.16 nM
- IC50 [1, 9]: 0.16 nM
- IC50 [7]: 0.16 nM
- IC50 [4]: 0.22 nM
- Ratio of Bcl-2 D103Y/Bcl-2 WT [4]: 1.3
- IC50 [8]: 0.8 nM

Compound: COc1cc(CN2CCN(C3CC4(CCN(c5ccc(C(=O)NS(=O)(=O)c6ccc(NC[C@H]7CC[C@](C)(O)CC7)c([N+](=O)[O-])c6)c(Oc6cnc7[nH]ccc7c6)c5)CC4)C3)C(c3ccccc3C(C)C)C2)cc(C)c1OC (stereo partly drawn) [Example 158]
- IC50 [5]: 0.75 nM
- Ratio of Bcl-2 G101V/WT [6]: 2.8
- IC50 [1, 10]: 0.27 nM
- IC50 [1, 9]: 0.27 nM
- IC50 [7]: 0.322 nM
- IC50 [4]: 0.37 nM
- Ratio of Bcl-2 D103Y/Bcl-2 WT [4]: 1.3
- IC50 [8]: 1.52 nM

Compound: CCc1ccc(CN2CCN(C3CC4(C3)CN(c3ccc(C(=O)NS(=O)(=O)c5ccc(NC[C@H]6CC[C@](C)(O)CC6)c([N+](=O)[O-])c5)c(Oc5cnc6[nH]cc(F)c6c5)c3)C4)[C@H](c3ccccc3C(C)C)C2)cc1OC [Example 268, 4-(6-((R)-4-(4-ethyl-3-methoxybenzyl)-2-(2-isopropylphenyl)piperazin-1-yl)-2-azaspiro[3.3]heptan-2-yl)-2-((3-fluoro-1H-pyrrolo[2,3-b]pyridin-5-yl)oxy)-N-((4-((((1r,4r)-4-hydroxy-4-methylcyclohexyl)methyl)amino)-3-nitrophenyl)sulfonyl) benzamide]
- IC50 [5]: 1.3 nM
- Ratio of Bcl-2 G101V/WT [6]: 1.6
- IC50 [1, 10]: 0.79 nM
- IC50 [1, 9]: 0.79 nM
- IC50 [7]: 0.1 nM
- IC50 [4]: 0.88 nM
- Ratio of Bcl-2 D103Y/Bcl-2 WT [4]: 1.1
- IC50 [8]: 0.25 nM

Compound: CC(C)c1ccccc1C1CN(Cc2ccc3c(c2)CCCO3)CCN1C1CC2(CCN(c3ccc(C(=O)NS(=O)(=O)c4ccc(NC[C@H]5CC[C@](C)(O)CC5)c([N+](=O)[O-])c4)c(Oc4cnc5[nH]ccc5c4)c3)CC2)C1 (stereo partly drawn) [Example 53, 2-((1H-pyrrolo[2,3-b]pyridin-5-yl)oxy)-4-(2-(4-(chroman-6-ylmethyl)-2-(2-isopropylphenyl)piperazin-1-yl)-7-azaspiro[3.5]nonan-7-yl)-N-((4-((((1r,4r)-4-hydroxy-4-methylcyclohexyl)methyl)amino)-3-nitrophenyl)sulfonyl)benzamide]
- IC50 [5]: 0.6 nM
- Ratio of Bcl-2 G101V/WT [6]: 3.5
- IC50 [1, 10]: 0.17 nM
- IC50 [1, 9]: 0.17 nM
- IC50 [7]: 0.47 nM
- IC50 [4]: 0.38 nM
- Ratio of Bcl-2 D103Y/Bcl-2 WT [4]: 2.2
- IC50 [8]: 3.1 nM

Compound: COc1cc(CN2CCN(C3CC4(C3)CN(c3ccc(C(=O)NS(=O)(=O)c5ccc(NCC6CCOCC6)c([N+](=O)[O-])c5)c(Oc5cnc6[nH]cc(F)c6c5)c3)C4)[C@H](c3ccccc3C(C)C)C2)ccc1C1CC1 [Example 320, (R)-4-(6-(4-(4-cyclopropyl-3-methoxybenzyl)-2-(2-isopropylphenyl)piperazin-1-yl)-2-azaspiro[3.3]heptan-2-yl)-2-((3-fluoro-1H-pyrrolo[2,3-b]pyridin-5-yl)oxy)-N-((3-nitro-4-(((tetrahydro-2H-pyran-4-yl)methyl)amino)phenyl)sulfonyl) benzamide]
- IC50 [5]: 1.7 nM
- Ratio of Bcl-2 G101V/WT [6]: 3.1
- IC50 [1, 10]: 0.55 nM
- IC50 [1, 9]: 0.55 nM
- IC50 [7]: 0.19 nM
- IC50 [4]: 0.52 nM
- Ratio of Bcl-2 D103Y/Bcl-2 WT [4]: 0.93
- IC50 [8]: 0.47 nM

Compound: CC(C)c1ccccc1C1CN(Cc2ccccc2)CCN1C1CC2(CCN(c3ccc(C(=O)NS(=O)(=O)c4ccc(NC[C@H]5CC[C@](C)(O)CC5)c([N+](=O)[O-])c4)c(Oc4cnc5[nH]ccc5c4)c3)CC2)C1 (stereo partly drawn) [Example 23, 2-((1H-pyrrolo[2,3-b]pyridin-5-yl)oxy)-4-(2-(4-benzyl-2-(2-isopropylphenyl)piperazin-1-yl)-7-azaspiro[3.5]nonan-7-yl)-N-((4-((((1r,4r)-4-hydroxy-4-methylcyclohexyl)methyl)amino)-3-nitrophenyl)sulfonyl)benzamide]
- IC50 [5]: 2.1 nM
- ratio of IC50 of Bcl-2 G101V/Bcl-2 wt, compared with Example F132b in WO2019210828 and ABT-199 (venetoclax) ([6]; comparison in words): much lower
- Ratio of Bcl-2 G101V/WT [6]: 4.7
- IC50 [1, 10]: 0.45 nM
- IC50 [1, 9]: 0.13 nM
- IC50 [7]: 0.39 nM
- IC50 [4]: 0.26 nM
- ratio of Bcl-2 D103Y/Bcl-2 wt, compared with F91b in WO2019210828 ([4]; comparison in words): significantly lower
- Ratio of Bcl-2 D103Y/Bcl-2 WT [4]: 2
- IC50 [8]: 2.66 nM

Compound: [2H]C([2H])([2H])Oc1cc(CN2CCN(C3CC4(C3)CN(c3ccc(C(=O)NS(=O)(=O)c5ccc(NC[C@H]6CC[C@](C)(O)CC6)c([N+](=O)[O-])c5)c(Oc5cnc6[nH]ccc6c5)c3)C4)[C@H](c3ccccc3C(C)C)C2)cc2c1OCC2(C)C [Example 324, 2-((1H-pyrrolo[2,3-b]pyridin-5-yl)oxy)-N-((4-((((1r,4r)-4-hydroxy-4-methylcyclohexyl)methyl)amino)-3-nitrophenyl)sulfonyl)-4-(6-((R)-2-(2-isopropylphenyl)-4-((7-(methoxy-d3)-3,3-dimethyl-2,3-dihydrobenzofuran-5-yl)methyl)piperazin-1-yl)-2-azaspiro[3.3]heptan-2-yl)benzamide]
- IC50 [5]: 0.31 nM
- Ratio of Bcl-2 G101V/WT [6]: 1.9
- IC50 [1, 10]: 0.16 nM
- IC50 [1, 9]: 0.16 nM
- IC50 [7]: 0.22 nM
- IC50 [4]: 0.14 nM
- Ratio of Bcl-2 D103Y/Bcl-2 WT [4]: 0.87
- IC50 [8]: 0.51 nM
